Laboratory results published in patent publication US8343991B2, “Anhydrous crystalline vinflunine salts, method of preparation and use thereof as a drug and means of vinflunine purification” (Pierre Fabre Medicament, priority 2007, dated 2013).

What was measured:
[1] = Comparative stability of amorphous ditartrate and crystalline fumarate, powder form, HPLC analysis; format: physicochemical; conditions: for degradation in powder form: 14 days
Protocol: Comparative stability of amorphous ditartrate and crystalline fumarate:
1. Raw material: • Batch OP3.0B: amorphous vinflunine ditartrate. • Batch JLM4008400: crystalline vinflunine fumarate.
(§1) 2. Stability conditions: • Stability studies are carried out on the powder form away from light under the following conditions: • closed bottle: 50° C., • open bottle: 40° C., 75% relative humidity. • A measurement is taken at T0 and at T0+14 days.
3. Analytical conditions: • HPLC system: • Column: Sunfire C18, 5 μm, 4.6×250 mm (Waters) temperature maintained at 35° C. • Eluent: CH3CN/MeOH/H2O/KH2PO4 400/150/450/6.8 (ml/ml/ml/g) adjusted to pH 7 (with KOH). • Flow rate: 1 ml/min • Detection: 269 nm

[2] = Water content of the powder in the comparative stability study; format: physicochemical
Protocol: as §1

[3] = T0 + 14 d, 40° C., 75% RH, open bottle, powder away from light
[4] = T0 + 14 d, 50° C., closed bottle, powder away from light
[5] = in the presence of moisture (40° C., 75% RH)
[6] = T0 + 14 d, 40° C., 75% RH, open bottle

Substance | degradation in powder form ([1]; 50° C. (closed bottle)) | HPLC analysis [1, 3] | HPLC analysis [1, 4] | HPLC analysis ([1]; T0, powder, before storage) | degradation in powder form [1, 5] | Water content ([2]; T0) | Water content [2, 6]
vinflunine ditartrate [OP3.OB] | 2.1% | 98.21% | 97.18% | 99.28% | 1.07% | 6.27% | 10.18%
vinflunine fumarate [JLM4008400] | less than 0.2% | 99.38% | 99.56% | 99.52% | less than 0.2% | 1.33% | 4.18%
